The source made the active and inactive calls. The rule behind the calls is not given here.
Tests used:
K562 [1] = assay: Potentiation of bovine RNase-A G88R mutant-induced cytotoxicity against human K562 cells assessed as incorporation of [methyl-3H]-thymidine into cellular DNA at 10 uM after 4 hrs by liquid scintillation counting; format: functional
[2] = molecular target: T1, Ribonuclease pancreatic (Bos taurus) (UniProt P61823); assay: Binding affinity to bovine RNase A in PBS buffer assessed as melting temperature at 1 uM after 3 hrs by UV spectroscopy (reference value: 62.7 +/- 0.1 degC)
T1 sequence (whole entry): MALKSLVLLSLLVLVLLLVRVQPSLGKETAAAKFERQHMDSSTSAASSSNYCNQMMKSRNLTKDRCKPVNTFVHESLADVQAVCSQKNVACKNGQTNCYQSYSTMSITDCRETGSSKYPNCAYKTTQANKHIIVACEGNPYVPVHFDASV

[3] = molecular target: T1, Ribonuclease pancreatic (Bos taurus); assay: Effect on bovine RNase A ribonucleolytic activity assessed as kcat/KM ratio of 6-FAM-dArUdAdA-6-TAMRA at 1 uM by fluorescence assay
Ribonuclease pancreatic = molecular target: T2, Ribonuclease pancreatic (Bos taurus, UniProt P61823); assay: Inhibition of bovine RNase A interaction to ribonuclease inhibitor protein after 30 mins by competition assay
T2 sequence (P61823 whole entry): T1 sequence (whole entry)

K562 [4] = assay: Potentiation of bovine RNase-A DRNG mutant-induced cytotoxicity against human K562 cells assessed as incorporation of [methyl-3H]-thymidine into cellular DNA at 10 uM after 4 hrs by liquid scintillation counting; format: functional
[5] = molecular target: T1, Ribonuclease pancreatic (Bos taurus); assay: Binding affinity to bovine RNase A in PBS assessed as melting temperature at 10 uM after 3 hrs by UV spectroscopy (reference value: 62.7 +/- 0.1 degC)
K562 [6] = assay: Potentiation of bovine wild type RNase-A-induced cytotoxicity against human K562 cells assessed as incorporation of [methyl-3H]-thymidine into cellular DNA at 1 to 10 uM after 4 hrs by liquid scintillation counting; format: functional, cell-based
[7] = molecular target: T1, Ribonuclease pancreatic (Bos taurus); assay: Induction of bovine RNaseA internalization in human K562 cells assessed as internalization count at 1 uM after 3 hrs by flow cytometry; format: cell-based
[8] = molecular target: T1, Ribonuclease pancreatic (Bos taurus); assay: Effect on bovine RNase A ribonucleolytic activity assessed as kcat/KM ratio of 6-FAM-dArUdAdA-6-TAMRA at 10 uM by fluorescence assay
[9] = molecular target: T1, Ribonuclease pancreatic (Bos taurus); assay: Induction of bovine RNaseA internalization in human K562 cells assessed as internalization count at 10 uM after 3 hrs by flow cytometry; format: cell-based

NCCNC(=O)CCN(CCNC(=O)CCN(CCNC(=O)CCN(CCC(=O)NCCN(CCC(=O)NCCN(CCC(=O)NCCN)CCC(=O)NCCN)CCC(=O)NCCN(CCC(=O)NCCN)CCC(=O)NCCN)CCN(CCC(=O)NCCN(CCC(=O)NCCN(CCC(=O)NCCN)CCC(=O)NCCN)CCC(=O)NCCN(CCC(=O)NCCN)CCC(=O)NCCN)CCC(=O)NCCN(CCC(=O)NCCN(CCC(=O)NCCN)CCC(=O)NCCN)CCC(=O)NCCN(CCC(=O)NCCN)CCC(=O)NCCN)CCC(=O)NCCN(CCC(=O)NCCN)CCC(=O)NCCN)CCC(=O)NCCN [POLY(AMIDOAMINE)DENDRIMER] was tested, and the “fold change (FC)” value (K562 [1]) was 5, the Tm [2] was 62.8 °C and the Activity [3] was “inactive”. The Kd (Ribonuclease pancreatic) was 3.1 µM, the “fold change (FC)” value (K562 [4]) was 5 and the Tm [5] was 63.2 °C. The Activity (K562 [6]) was “inactive”, the Activity [7] was “inactive” and the Activity [8] was “inactive”. The Activity [9] was “inactive”.
